# Experimental data as given in patent US20190254299A1, “METHODS OF HANDLING AVOCADOS AND SYSTEM” (AGROFRESH INC., priority 2012, published 2019).
# Experiments:
# Type in all cases: in vivo
# avocados [1] = experiment: Skin color rating of avocados, Example 1 (California); parameters: key: 1 = full green, 3 = half green/half brown, 5 = purple-black
# Text: (§1) Avocado skin color was rated using the following scale: • 1=full green • 2=green with traces of brown • 3=half green and half brown • 4=brown with traces of green • 5=purple-black
# (§2) Avocados were harvested in Oxnard, Calif., USA and packed in cardboard boxes and shipped to Sacramento, Calif, USA. After 2 days of transportation part of the avocados were packed in MAP bags. The appropriate weight of avocados was placed in each bag after harvest and shipment. Bags were placed in RPC (Recycle Plastic Container) carrying devices. Avocados then were stored at room temperature (22° C.).
# (§3) The Test Protocol that was used was as follows. 60 MAP bags were packed. Each hag held approximately 1.7 kg (3.8 lb) of avocados. Three such bags were packed in each RPC. Total weight of avocados in MAP bags was approximately 102 kg. Approximately 51 kg of avocados were placed into RPC identical to those used for the MAP bags. The MAP-packaged avocados were packaged as follows: Nine fruits, approximately 1.7 kg (3.8 lb) were carefully placed into MAP bags, and the bags were sealed by twisting the open side of the bag, folding down the twisted end, and placing a rubber band around the twisted and folded end of the bag.
# (§4) Avocados were harvested with a very high firmness (not possible to measure with FTA Machines (Firmness Texture Analyzer)). The FTA higher limit was 156 N (351 bf). To monitor the ripening process of the avocados, extra fruits were bagged in MAP bags and the firmness was monitored every day, twice a day until the fruits achieve an average firmness of 111 N (25 lbf). All avocados were kept at room temperature (22° C.) until achieving an average firmness of 111 N (251 bf).
# (§5) After achieving an average firmness of 111 N (25 lbf) the avocados were randomly divided into treatment sets as follows:
# (§6) On the same day the avocados achieved 111 N (25 lbf) of average firmness, each treatment set was marked, placed in a hermetical chamber at room temperature (22° C.). All chambers were of equal size and packed the same way. Treatment was for 12 hr. In the chambers for the 3 “MCP” treatment groups, at the beginning of the treatment period, SmartFresh™ SmartTabs™ tablets (AgroFresh, Inc.) were placed in the chamber. The amount of SmartFresh™ SmartTabs™ tablets was chosen to achieve the indicated concentration of 1-methylcyclopropene in the atmosphere of the chamber. The SmartTabs™ tablets were contacted with water in the normal way to release 1-MCP.
# (§7) After the treatment in the chambers, the RPCs were moved into racks at room temperature for storage and observation. Avocados remained in the same bags throughout the packing, treatment in the chamber, and subsequent storage. Evaluation for skin color and pulp firmness was as follows. Day “zero” was the day the avocados were removed from the chamber and placed in storage. Each test result was the average of 12 fruits.
# avocados [2] = experiment: Pulp firmness by penetrometer, Example 1 (California)
# Experimental: (§8) As used herein, the “pulp firmness” of an avocado is measured using a penetrometer (Fruit Test™ FT40 penetrometer, from Wagner Instruments) having a plunger diameter of 8 mm Performing the test for pulp firmness destroys the avocado that is tested. When avocados are said herein to be treated in a certain way (e.g., harvested, shipped, exposed to a cyclopropene compound, etc.) when they have a certain specified pulp firmness, it is meant that, out of a group of avocados that have been harvested and treated as uniformly as reasonably possible, a sample of a relatively small number of avocados is removed and tested for pulp firmness. The large group of avocados is considered to have the pulp firmness that is the average value of the tests performed on the relatively small sample.
# (§9) Pulp firmness was evaluated by peeling open 4 cm^2 of the avocado's peel using a fruit peeler provided with the penetrometer. The penetrometer was mounted on a manual stand with a lever to deliver unifoim force throughout the test. The avocado was placed with the peeled surface beneath the penetrometer tip with probe diameter of 8 mm, and the force required to punch through the pulp was measured. Each fruit was tested in 3 places.
# as §2, §3, §4, §5, §6, §7
# avocados [3] = experiment: Skin color on day 8, Example 3; parameters: key: 1: full green; 2: green with traces of brown; 3: half green and half brown; 4: brown with traces of green; 5: purple-black; details: 1000 ppb MCP
# Experimental: as §1
# Avocados were harvested in Mexico and shipped to Pennsylvania, USA. 48 fruits were tested. When the fruits reached pulp firmness of 71 N (16 lbf), half of the fruits were exposed to atmosphere having 1000 ppb of MCP at 21.1° C. for 12 hours and half were not. Immediately after treatment, fruits were placed in MAP bags. The number of fruits per bag was either 1, 2, 3, 4, or 10. Two MCP-treated fruits were left out of any MAP, and two fruits not exposed to MCP were also left out of any MAP. All fruits were then stored at 21° C. (70° F.). On the eighth day after exposure to atmosphere containing MCP, fruits were tested with the following results. The results shown are the averages for all the fruits tested in each category.
# Avocados were harvested and shipped as in Example 2. Treatment was performed when pulp thinness reached 98 N (22 lbf). 50 fruits were tested. Otherwise the treatment and handling was the same as in Example 2. Results (average of all fruits tested in each category) were as follows: […]
# avocados [4] = experiment: Skin color rating, ethylene-treated fruit, Example 6; parameters: key to Skin Color ratings: 1 = full green to 5 = purple-black; details: for Skin Color ratings: ethylene-treated, 900 ppb MCP
# Text: as §1
# (§10) Avocados were harvested, handled, and tested as in Example 1. Fruits were placed into MAP bags or else into “Poly bags” (plastic bags having more than 10 holes per bag, with each hole larger than 1 cm in diameter).
# (§11) Three fruits (approximately 1.8 kg of fruit) were placed in each bag. After placement into bags, fruit was exposed to ethylene (200 ppm for 24 hours at 22° C.). Then, the fruit was exposed to 1-MCP (900 ppb for 15 hours at 22° C.).
# avocados [5] = experiment: Pulp firmness, ethylene-treated fruit, Example 6; details: for Pulp Firmness Difference from the Control Sample: ethylene-treated, 900 ppb MCP, control Poly bag, 0 MCP
# Experimental: as §8, §9, §10, §11
# avocados [6] = experiment: RipeLock applications, Example 7; details: FIG. 5, firmness
# Text: Avocados are harvested, handled, and tested as in previous examples. Control samples have no bag and no SmartFresh (1-methylcyclopropene or 1-MCP) application. SmartFresh samples have no bags hut with 600 ppb SmartFresh (1-methylcyclopropene or 1-MCP) application. MAP samples use the 31b MAP bags but no SmartFresh (1-methylcyclopropene or 1-MCP) application. RipeLock 300 samples have the 31b MAP bags with 300 ppb SmartFresh (1-methylcyclopropene or 1-MCP) application. RipeLock 600 samples have the 31b MAP bags with 600 ppb SmartFresh (1-methylcyclopropene or 1-MCP) application. RipeLock 900 samples have the 31b MAP bags with 900 ppb SmartFresh (1-methylcyclopropene or 1-MCP) application. Average fruit in each sample is about 3.81b.
# Oxygen (O2) concentrations of samples tested are shown in FIG. 1, and carbon dioxide (CO2) concentrations of samples tested are shown in FIG. 2.
# avocados [7] = experiment: Additional RipeLock applications, Example 8; details: seven days at 22° C.
# Text: Avocados are harvested, handled, and tested as in previous examples. Control samples have no bag and no SmartFresh (1-methylcyclopropene or 1-MCP) application. SmartFresh samples have no bags but with 500 ppb SmartFresh (1-methylcyclopropene or 1-MCP) application. MAP samples use the 31b MAP bags but no SmartFresh (1-methylcyclopropene or 1-MCP) application. RipeLock samples have the 3 lb MAP bags with various concentrations of SmartFresh (1-methylcyclopropene or 1-MCP) applications, including 10 ppb, 50 ppb, 100 ppb, 500 ppb, 1500 ppb, 3000 ppb, and 4500 ppb. Average fruit in each sample is about 3.8 lb. Ethylene is treated after packing at 200 ppm for twenty-four hours. Evaluations are performed seven days at 22° C. after SmartFresh (1-methylcyclopropene or 1-MCP) applications.
# Data of pulp firmness of avocado tested are shown in FIG. 6 (with ethylene) and FIG. 7 (without ethylene).
compound,measurement,setting,value
"CC1=CC1 [MCP, 1-methylcyclopropene]",Skin Color ratings,"avocados [1]; MAP bag, 300 ppb MCP, day 0",1.7
same,Skin Color ratings,"avocados [1]; MAP bag, 300 ppb MCP, day 1",2.9
same,Skin Color ratings,"avocados [1]; MAP bag, 300 ppb MCP, day 2",2.3
same,Skin Color ratings,"avocados [1]; MAP bag, 300 ppb MCP, day 3",2.8
same,Skin Color ratings,"avocados [1]; MAP bag, 300 ppb MCP, day 4",2.3
same,Skin Color ratings,"avocados [1]; MAP bag, 600 ppb MCP, day 0",1.7
same,Skin Color ratings,"avocados [1]; MAP bag, 600 ppb MCP, day 1",2.3
same,Skin Color ratings,"avocados [1]; MAP bag, 600 ppb MCP, day 2",2.3
same,Skin Color ratings,"avocados [1]; MAP bag, 600 ppb MCP, day 3",2.2
same,Skin Color ratings,"avocados [1]; MAP bag, 600 ppb MCP, day 4",2.1
same,Skin Color ratings,"avocados [1]; MAP bag, 900 ppb MCP, day 0",1.6
same,Skin Color ratings,"avocados [1]; MAP bag, 900 ppb MCP, day 1",2.3
same,Skin Color ratings,"avocados [1]; MAP bag, 900 ppb MCP, day 2",2.3
same,Skin Color ratings,"avocados [1]; MAP bag, 900 ppb MCP, day 3",2.3
same,Skin Color ratings,"avocados [1]; MAP bag, 900 ppb MCP, day 4",2.4
same,Skin Color ratings,"avocados [1]; No Bag, 600 ppb MCP, day 0",2.6
same,Skin Color ratings,"avocados [1]; No Bag, 600 ppb MCP, day 1",3.0
same,Skin Color ratings,"avocados [1]; No Bag, 600 ppb MCP, day 2",2.8
same,Skin Color ratings,"avocados [1]; No Bag, 600 ppb MCP, day 3",3.8
same,Skin Color ratings,"avocados [1]; No Bag, 600 ppb MCP, day 4",3.4
same,Pulp Firmness - Difference from Untreated Control,"avocados [2]; MAP bag, 300 ppb MCP, day 0",90 Ns
same,Pulp Firmness - Difference from Untreated Control,"avocados [2]; MAP bag, 300 ppb MCP, day 1",22 Ns
same,Pulp Firmness - Difference from Untreated Control,"avocados [2]; MAP bag, 300 ppb MCP, day 2",36 Ns
same,Pulp Firmness - Difference from Untreated Control,"avocados [2]; MAP bag, 300 ppb MCP, day 3",41.3 Ns
same,Pulp Firmness - Difference from Untreated Control,"avocados [2]; MAP bag, 300 ppb MCP, day 4",33 Ns
same,Pulp Firmness - Difference from Untreated Control,"avocados [2]; MAP bag, 600 ppb MCP, day 0",84 Ns
same,Pulp Firmness - Difference from Untreated Control,"avocados [2]; MAP bag, 600 ppb MCP, day 1",46 Ns
same,Pulp Firmness - Difference from Untreated Control,"avocados [2]; MAP bag, 600 ppb MCP, day 2",39 Ns
same,Pulp Firmness - Difference from Untreated Control,"avocados [2]; MAP bag, 600 ppb MCP, day 3",59.3 Ns
same,Pulp Firmness - Difference from Untreated Control,"avocados [2]; MAP bag, 600 ppb MCP, day 4",40 Ns
same,Pulp Firmness - Difference from Untreated Control,"avocados [2]; MAP bag, 900 ppb MCP, day 0",93 Ns
same,Pulp Firmness - Difference from Untreated Control,"avocados [2]; MAP bag, 900 ppb MCP, day 1",61 Ns
same,Pulp Firmness - Difference from Untreated Control,"avocados [2]; MAP bag, 900 ppb MCP, day 2",52 Ns
same,Pulp Firmness - Difference from Untreated Control,"avocados [2]; MAP bag, 900 ppb MCP, day 3",49.3 Ns
same,Pulp Firmness - Difference from Untreated Control,"avocados [2]; MAP bag, 900 ppb MCP, day 4",46 Ns
same,improvement over the untreated control (pulp firmness),"avocados [2]; MCP alone at 600 ppb, day 3",4 lbf
same,Pulp Firmness - Difference from Untreated Control,"avocados [2]; No Bag, 600 ppb MCP, day 0",29 Ns
same,Pulp Firmness - Difference from Untreated Control,"avocados [2]; No Bag, 600 ppb MCP, day 1",14 Ns
same,Pulp Firmness - Difference from Untreated Control,"avocados [2]; No Bag, 600 ppb MCP, day 2",10 Ns
same,Pulp Firmness - Difference from Untreated Control,"avocados [2]; No Bag, 600 ppb MCP, day 3",17.3 Ns
same,Pulp Firmness - Difference from Untreated Control,"avocados [2]; No Bag, 600 ppb MCP, day 4",12 Ns
same,"Skin Color on Day 8, Color Rating",avocados [3]; MAP bag,4.2
same,"Skin Color on Day 8, Color Rating",avocados [3]; no bag,5
same,skin color compared with other treatments,"avocados [4]; MAP bags and 900 ppb of 1-MCP, days 1, 2, and 3",best skin color
same,Skin Color ratings,"avocados [4]; MAP bag, day 0",2.1
same,Skin Color ratings,"avocados [4]; MAP bag, day 1",3.0
same,Skin Color ratings,"avocados [4]; MAP bag, day 2",3.3
same,Skin Color ratings,"avocados [4]; MAP bag, day 3",3.4
same,Skin Color ratings,"avocados [4]; MAP bag, day 4",4.4
same,Skin Color ratings,"avocados [4]; Poly bag, day 0",4.1
same,Skin Color ratings,"avocados [4]; Poly bag, day 1",4.9
same,Skin Color ratings,"avocados [4]; Poly bag, day 2",4.8
same,Skin Color ratings,"avocados [4]; Poly bag, day 3",4.8
same,Skin Color ratings,"avocados [4]; Poly bag, day 4",4.9
same,effect of combining MAP bag and 1-MCP on pulp firmness,"avocados [5]; MAP bags and 900 ppb 1-MCP, days 1-4",synergistic benefit to pulp firmness
same,pulp firmness compared with other treatments,"avocados [5]; MAP bags and 900 ppb of 1-MCP, days 1-4",best pulp firmness
same,Pulp Firmness Difference from the Control Sample,"avocados [5]; MAP bag, day 0",13.8 Ns
same,Pulp Firmness Difference from the Control Sample,"avocados [5]; MAP bag, day 1",30.4 Ns
same,Pulp Firmness Difference from the Control Sample,"avocados [5]; MAP bag, day 2",14.6 Ns
same,Pulp Firmness Difference from the Control Sample,"avocados [5]; MAP bag, day 3",21.4 Ns
same,Pulp Firmness Difference from the Control Sample,"avocados [5]; MAP bag, day 4",14.8 Ns
same,Pulp Firmness Difference from the Control Sample,"avocados [5]; Poly bag, day 0",0.1 Ns
same,Pulp Firmness Difference from the Control Sample,"avocados [5]; Poly bag, day 1",1.1 Ns
same,Pulp Firmness Difference from the Control Sample,"avocados [5]; Poly bag, day 2",0.6 Ns
same,Pulp Firmness Difference from the Control Sample,"avocados [5]; Poly bag, day 3",1.4 Ns
same,Pulp Firmness Difference from the Control Sample,"avocados [5]; Poly bag, day 4",0.1 Ns
same,combined effect of MAP bags and SmartFresh application,avocados [6],synergistic effect
same,firmness and skin color by application rate,avocados [7]; rate of 1500 ppb in MAP bags,best result for both firmness and skin color
same,combined effect of MAP bags and SmartFresh applications,avocados [7]; rates equal or higher than 500 ppb,synergistic effect
